Experimental data published in patent US9839214B2, “Solavetivone and 5-epi-beta-vertivone as pest repellants and pesticides” (EVOLVA, INC., priority 2012, dated 2017).

Columns and labels:
[1] = tested on: adult bed bugs (Cimex lectularius); assay: Bed bug repellency on half-treated filter paper in Petri dish chambers, Day 1; format: in vivo; conditions: for Repellancy / Repellancy, Averages: 0.5% active and 0.1% BHT in acetone on filter paper; for Repellancy / Repellancy, Averages / # bed bugs on the treated filter paper / # bed bugs on the treated filter paper, Averages: Day 1; for Repellancy: 50 bed bugs; for Repellancy, Averages / # bed bugs on the treated filter paper, Averages: average of 0.5-24 hr readings; for # bed bugs on the treated filter paper / # bed bugs on the treated filter paper, Averages: 0.5% active and 0.1% BHT in acetone, of 50 bed bugs; for time for which bed bugs are repelled following treatment: 0.5% active, Day 1 test
Experimental: A formulation, containing 0.5% solavetivone and 0.1% butylated hydroxytoluene (BHT) in acetone was tested for efficacy for repelling adult bed bugs (Cimex lectularius). Treatment chambers were created by cutting a circular hole in the bottom of 9-cm Petri dishes. A fine mesh nylon cloth was then glued to Petri dishes, covering the holes. The chambers were formed using the inverted Petri dishes with the screened bottoms serving as the tops and the lids forming the base of the chambers. The lids were secured with rubber bands. Five semi-circular pieces of filter paper, with a diameter of 9 cm were arranged so that they were evenly spaced on a sheet of aluminum foil. One (1) mL of 0.5% solavetivone solution, stored at ambient temperature and humidity, was applied to the filter papers. Five untreated semi-circular pieces were marked with the letter “c”, for control, on both sides in pencil or solvent resistant ink. One solavetivone-treated filter paper and one untreated filter paper were placed with the flat sides against each other, creating a full circle, in the lids of five 9-cm Petri dishes, serving as the treatment chambers described above, such that the entire surface of the lid was covered. Prior to addition of the bed bugs, the filter papers were confirmed to be completely dry and free of any residual acetone odor. Ten (10) bed bugs, having received a blood meal no more than 7 days before, were placed onto the untreated piece of paper and covered with the ventilated base of the Petri dish. The containers of each replicate were then kept at ambient laboratory temperature and humidity for the duration of the study. The distribution of the bed bugs on the treated and untreated filter papers was recorded at 0.5, 1, 1.5, 2, and 24 hours after being placed in the containers. Observations were made in darkness with the aid of a red lens flashlight. Gloves and a dust mask were worn by the observer to reduce detection of the bed bugs and to minimize disturbance caused by the observer. Five additional treatment chambers were created as described above, except the treated filter paper was soaked with acetone with 0.1% BHT (control treatment), instead of the 0.5% solavetivone solution. Bed bug distribution in the control chambers were recorded as described for the treatment condition. The solavetivone treatment repellency was calculated from the following equation: R=[(C−T)/C]*100, where R is the % repellency, C is the fraction of bed bugs on the acetone-treated filter papers, and T is the fraction of bed bugs on the solavetivone-treated filter papers. […] A formulation, containing 0.5% 5-epi-β-vetivone and 0.1% butylated hydroxytoluene (BHT) in acetone was tested for efficacy for repelling adult bed bugs (Cimex lectularius). Treatment chambers were prepared as described in Example 1A. Five semi-circular pieces of filter paper, with a diameter of 9 cm were arranged so that they were evenly spaced on a sheet of aluminum foil. One (1) mL of 0.5% 5-epi-β-vetivone solution, stored at ambient temperature and humidity, was applied to the filter papers. Five untreated semi-circular pieces were marked with the letter “c”, for control, on both sides in pencil or solvent resistant ink. One 5-epi-β-vetivone-treated filter paper and one untreated filter paper were placed with the flat sides against each other, creating a full circle, in the lids of five 9-cm Petri dishes, serving as the treatment chambers described above, such that the entire surface of the lid was covered. Prior to addition of the bed bugs, the filter papers were confirmed to be completely dry and free of any residual acetone odor. Ten (10) bed bugs, having received a blood meal no more than 7 days before, were placed onto the untreated piece of paper and covered with the ventilated base of the Petri dish. The containers of each replicate were then kept at ambient laboratory temperature and humidity for the duration of the study. […]

[2] = tested on: bed bug (Cimex lectularius); assay: Extended bed bug repellency, same treated chambers with new bed bugs, Day 2; format: in vivo; conditions: for Repellancy / Repellancy, Averages: 0.5% active and 0.1% BHT in acetone on filter paper; for Repellancy / # bed bugs on the treated filter paper: Day 2, new bed bugs; for Repellancy: 50 bed bugs; for Repellancy, Averages / # bed bugs on the treated filter paper, Averages / time for which bed bugs are repelled following treatment: Day 2; for Repellancy, Averages / # bed bugs on the treated filter paper, Averages: average of 0.5-24 hr readings; for # bed bugs on the treated filter paper / # bed bugs on the treated filter paper, Averages: 0.5% active and 0.1% BHT in acetone, of 50 bed bugs; for time for which bed bugs are repelled following treatment: 0.5% active, extended test
Experimental: The bed bug (Cimex lectularius) treatment chambers described in part A above were used to test the duration of 0.5% solavetivone in acetone repellent effects. At the end of 24 hours, the old bed bugs were removed from each Petri dish and 10 new bed bugs were added to each dish, for a total of 50 bed bugs. The distribution of the new set of bed bugs was recorded at 0.5, 1, 1.5, 2, and 24 hours after their introduction to the chamber (Day 2). Observations were made and repellency was calculated as described in Section A above. […] The bed bug (Cimex lectularius) treatment chambers described in part A above were used to test the duration of 0.5% 5-epi-β-vetivone in acetone repellent effects. At the end of 24 hours, the old bed bugs were removed from each Petri dish and 10 new bed bugs were added to each dish, for a total of 50 bed bugs. The distribution of the new set of bed bugs was recorded at 0.5, 1, 1.5, 2, and 24 hours after their introduction to the chamber (Day 2). Observations were made and repellency was calculated as described in Section A above.

SMILES	Repellancy ([1]; 0.5 hr) [%]	Repellancy ([1]; 1.0 hr) [%]	Repellancy ([1]; 1.5 hr) [%]	Repellancy ([1]; 2.0 hr) [%]	Repellancy ([1]; 24.0 hr) [%]	Repellancy, Averages [1] [%]	# bed bugs on the treated filter paper ([1]; 0.5 hr)	# bed bugs on the treated filter paper ([1]; 1.0 hr)	# bed bugs on the treated filter paper ([1]; 1.5 hr)	# bed bugs on the treated filter paper ([1]; 2.0 hr)	# bed bugs on the treated filter paper ([1]; 24.0 hr)	# bed bugs on the treated filter paper, Averages [1]	time for which bed bugs are repelled following treatment [1]	Repellancy ([2]; 0.5 hr after introduction) [%]	Repellancy ([2]; 1.0 hr after introduction) [%]	Repellancy ([2]; 1.5 hr after introduction) [%]	Repellancy ([2]; 2.0 hr after introduction) [%]	Repellancy ([2]; 24.0 hr after introduction) [%]	Repellancy, Averages [2] [%]	# bed bugs on the treated filter paper ([2]; 0.5 hr)	further results
CC1=CC(=O)C[C@@H](C)[C@@]12CCC(=C(C)C)C2 [5-epi-β-vetivone]	88.0	94.0	98.0	96.0	100.0	95.2	6	3	1	2	0	2.4	at least 24 hours	92.0	94.0	94.0	92.0	96.0	93.6	4	# bed bugs on the treated filter paper ([2]; 1.0 hr): 3; # bed bugs on the treated filter paper ([2]; 1.5 hr): 3; # bed bugs on the treated filter paper ([2]; 2.0 hr): 4; # bed bugs on the treated filter paper ([2]; 24.0 hr): 2; # bed bugs on the treated filter paper, Averages [2]: 3.2; time for which bed bugs are repelled following treatment [2]: at least 48 hours
C=C(C)[C@@H]1CC[C@@]2(C1)C(C)=CC(=O)C[C@H]2C [Solavetivone, solavetivone]	92.0	90.0	92.0	96.0	98.0	93.6	4	5	4	2	1	3.2	at least 24 hours	96.0	96.0	88.0	90.0	90.0	92.0	2	# bed bugs on the treated filter paper ([2]; 1.0 hr): 2; # bed bugs on the treated filter paper ([2]; 1.5 hr): 6; # bed bugs on the treated filter paper ([2]; 2.0 hr): 5; # bed bugs on the treated filter paper ([2]; 24.0 hr): 5; # bed bugs on the treated filter paper, Averages [2]: 4.0; time for which bed bugs are repelled following treatment [2]: at least 48 hours
